From EP0545912B1, “1-Biphenylmethylimidazole derivatives, their preparation and their therapeutic use” (Sankyo Company Limited, priority 1991, dated 1992)

Each molecule was assayed on All receptor (pressor response to angiotensin II) (assay: Evaluation of AII receptor blocking activity by inhibition of pressor response to angiotensin II). Details: dose inhibiting pressor response to intravenous angiotensin II (50 ng/kg) by fifty percent; anesthetized male Wister-Imamichi rats; test compound i.v., angiotensin II injected two minutes later; 2 min.
Format: in vivo
Procedure: Evaluation of All receptor blocking activity by Inhibition of pressor response to angiotensin II
The biological activity of each compound was assessed by determining the dose required to inhibit the pressor response to intravenous angiotensin II by fifty percent (ID50) in rats. Male Wister-Imamichi rats, each weighing 300 to 400 g, were anesthesized by intraperitoneal injection of 100 mg/Kg of sodium thiobutabarbital [Inactin (trade name)] and two cannulae were inserted: one into the femoral artery for measuring blood pressure and the other into the femoral vein for injecting drugs. Fifty ng/kg of angiotension II were intravenously administered at intervals of about 10 minutes, and the elevation of blood pressure (normally about 50 mmHg) was observed. After constant pressor responses to angiotensin II were obtained, a test compound was intravenously administered. Two minutes later, angiotension II was again injected, and the inhibitory effect of the test compound was estimated. The percent inhibitions of the pressor response to angiotensin II by progressive increase of the test compound was used to calculate the value of ID50. Angiotensin II was used in this test dissolved in 0.5 % bovine serum albumin (BSA) and the test compounds were dissolved in 100% dimethyl sulphoxide (DMSO).
In addition to the compounds of the invention (which are identified hereafter by the number of the one of the following Examples which illustrates their preparation), we also carried out the same experiment using a prior art compound (identified in the Table as "compound A"), which is 2-[4-(2-butyl-5-chloro-4-chloromethylimidazoll-ylmethyl)phenyl]benzoic acid, which is disclosed in Example 118 of European Patent Publication No. 253 310.
With CCCCc1nc(CO)c(C(=O)O)n1Cc1ccc(-c2ccccc2C(=O)O)cc1 [Example 5, 2-Butyl-1-[(2'-carboxybiphenyl-4-yl)methyl]-4-hydroxymethylimidazole-5-carboxylic acid] the ID50 was 0.22 mg/kg, i.v. CCCCc1nc(C(C)O)c(C(=O)O)n1Cc1ccc(-c2ccccc2C(=O)O)cc1 (stereo not shown) [Example 11, 2-Butyl-1-[(2'-carboxybiphenyl-4-yl)methyl]-4-(1-hydroxyethyl) imidazole-5-carboxylic acid] was tested, and the ID50 was 0.25 mg/kg, i.v. In the case of CCCc1nc(CO)c(C(=O)O)n1Cc1ccc(-c2ccccc2-c2nnn[nH]2)cc1 [Example 36, 4-Hydroxymethyl-2-propyl-1-{4-[2-(tetrazol-5-yl)phenyl]phenyl}methylimidazole-5-carboxylic acid], the ID50 is reported as 0.0062 mg/kg, i.v. In the case of CCCCc1nc(CO)c(C(=O)O)n1Cc1ccc(-c2ccccc2-c2nnn[nH]2)cc1 [Example 39, 2-Butyl-4-hydroxymethyl-1-{4-[2-(tetrazol-5-yl)-phenyl]phenyl}methylimidazole-5-carboxylic acid], the ID50 is reported as 0.010 mg/kg, i.v. With CCCc1nc(C(C)O)c(C(=O)O)n1Cc1ccc(-c2ccccc2-c2nnn[nH]2)cc1 (stereo not shown) [Example 41, 4-(1-Hydroxyethyl)-2-propyl-1-{4-[2-(tetrazol-5-yl)phenyl]phenyl}methylimidazole-5-carboxylic acid] the ID50 was 0.0063 mg/kg, i.v. In the case of CCCCc1nc(C(C)O)c(C(=O)O)n1Cc1ccc(-c2ccccc2-c2nnn[nH]2)cc1 (stereo not shown) [Example 44, 2-Butyl-4-(1-hydroxyethyl)-1-{4-[2-(tetrazol-5-yl)phenyl]phenyl}methylimidazole-5-carboxylic acid], the ID50 is reported as 0.0082 mg/kg, i.v. With CCCCc1nc(C(C)O)c(C(N)=O)n1Cc1ccc(-c2ccccc2C(=O)O)cc1 (stereo not shown) [Example 45, 2-Butyl-1-[(2'-carboxybiphenyl-4-yl)methyl]-4-(1-hydroxyethyl) imidazol-5-carboxamide] the ID50 was 0.19 mg/kg, i.v. CCCCc1nc(C(O)CC)c(C(N)=O)n1Cc1ccc(-c2ccccc2C(=O)O)cc1 (stereo not shown) [Example 46, 2 -Butyl-1-[(2'-carboxybiphenyl-4-yl)methyl]-4-(1-hydroxypropyl)imidazole-5-carboxamide] was tested, and the ID50 was 0.18 mg/kg, i.v. CCCCc1nc(C(O)C(C)C)c(C(N)=O)n1Cc1ccc(-c2ccccc2C(=O)O)cc1 (stereo not shown) [Example 48, 2-Butyl-1-[(2'-carboxybiphenyl-4-yl)methyl]-4-(1-hydroxy-2-methylpropyl)imidazole-5-carboxamide] was tested, and the ID50 was 0.064 mg/kg, i.v. CCCCc1nc(CO)c(C(=O)NCC(=O)O)n1Cc1ccc(-c2ccccc2C(=O)O)cc1 [Example 55, N-Carboxymethyl-2-butyl-1-[(2'-carboxybiphenyl-4-yl)-methyl]-4-hydroxymethylimidazole-5-carboxamide] was tested, and the ID50 was 0.23 mg/kg, i.v. In the case of CCCCc1nc(C(O)C(C)(C)C)c(C(N)=O)n1Cc1ccc(-c2ccccc2C(=O)O)cc1 (stereo not shown) [Example 59, 2-Butyl-1-[(2'-carboxybiphenyl-4-yl)methyl]-4-(1-hydroxy-2,2-dimethylpropyl)imidazole-5-carboxamide], the ID50 is reported as 0.066 mg/kg, i.v. In the case of CCCc1nc(C(O)C(C)(C)C)c(C(N)=O)n1Cc1ccc(-c2ccccc2C(=O)O)cc1 (stereo not shown) [Example 60, 1-[(2'-Carboxybiphenyl-4-yl)methyl]-4-(1-hydroxy-2,2-dimethylpropyl)-2-propylimidazole-5-carboxamide], the ID50 is reported as 0.134 mg/kg, i.v. For CCCc1nc(C(O)C(C)(C)C)c(C(N)=O)n1Cc1ccc(-c2ccccc2-c2nnn[nH]2)cc1 (stereo not shown) [Example 74, 4-(1-Hydroxy-2,2-dimethylpropyl)-2-propyl-1-{4-[2-(tetrazol-5-yl)phenyl]phenyl}methylimidazole-5-carboxamide], the ID50 was 0.036 mg/kg, i.v. CCCCc1nc(C(O)C(C)(C)C)c(C(N)=O)n1Cc1ccc(-c2ccccc2-c2nnn[nH]2)cc1 (stereo not shown) [Example 75, 2-Butyl-4-(1-hydroxy-2,2-dimethylpropyl)-1-{4-[2-(tetrazol-5-yl)phenyl]phenyl}methylimidazole-5-carboxamide] was tested, and the ID50 was 0.11 mg/kg, i.v. In the case of CCCc1nc(C(O)C(C)C)c(C(N)=O)n1Cc1ccc(-c2ccccc2-c2nnn[nH]2)cc1 (stereo not shown) [Example 76, 4-(1-Hydroxy-2-methylpropyl)-2-propyl-1-{4-[2-(tetrazol-5-yl)phenyl]phenyl}methylimidazole-5-carboxamide], the ID50 is reported as 0.022 mg/kg, i.v. In the case of CCCCc1nc(CCl)c(Cl)n1Cc1ccc(-c2ccccc2C(=O)O)cc1 [compound A, 2-[4-(2-butyl-5-chloro-4-chloromethylimidazoll-ylmethyl)phenyl]benzoic acid, reference compound], the ID50 is reported as 3.3 mg/kg, i.v.
